In patent US12037583B2, “Compositions and methods for immunooncology” (Novartis AG, priority 2015, dated 2024):

Tested on: PDCD1
Assay: NGS editing of PDCD1 by dgRNA in HEK cells stably expressing Cas9;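 note: dgRNA lipofected into Cas9-expressing HEK cells, lysed after 24 h, target amplicon sequenced, editing = reads carrying insertions or deletions as percent of all reads including wild type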
Type: cell-based, human
Settings: at least 3 experiments
From the text: Transfection of Cas9GFP-expressing HEK293 cells (HEK-293_Cas9GFP) was used for primary screening of target specific crRNAs. […] Selected crRNAs were chemically synthesized and delivered in a 96 well format. HEK-293-Cas9GFP cells were transfected with target crRNAs comprising a flagpole region of SEQ ID NO: 6607 in a 1:1 ratio with stock trRNA of SEQ ID NO: 6660. The transfection was mediated using lipofection technology according to manufacturer's protocol (DharmaFECT Duo, GE LifeSciences; or RNAiMax, LifeTechnologies). Transfected cells were lysed 24 h following lipofection and editing (e.g., cleavage) was detected within lysates with the T7E1 assay and/or next generation sequencing (NGS; below).
PCR primers were first designed around the target site, and the genomic area of interest PCR amplified. Additional PCR was performed according to manufacturer's protocols (Illumina) to add the necessary chemistry for sequencing. The amplicons were then sequenced on an Illumina MiSeq instrument. The reads were then aligned to the human reference genome (e.g., hg38) after eliminating those having low quality scores. From the resulting files containing the reads mapped to the reference genome (BAM files), reads which overlap the target region of interest were selected and the number of wild type reads versus the number of reads which contain an insertion or deletion was calculated. The editing percentage was then defined as the total number of reads with insertions or deletions over the total number of reads, including wild type. To determine the pattern of insertions and/or deletions that resulted from the edit, the aligned reads with indels were selected and the number of a reads with a given indel were summed.
Editing of CRISPR systems containing dgRNA molecules comprising targeting domains to sequences of PDCD1 were tested for editing in HEK (gRNA delivered to cells stably expressing Cas9) and CD3+ T cells (gRNA and Cas9 delivered as RNP) according to the methods described herein.
All mean editing % are as measured by NGS and are based on at least 3 experiments.

First: CR000824: dgRNA targeting domain to PDCD1 (guide UCAGGCGGAGGUGAGCGGAA; targeting domain within dual guide RNA, chemistry not given here, further chemistry not given here; listed as Homo sapiens)
Second: CR000825: dgRNA targeting domain to PDCD1 (guide CUCAGGCGGAGGUGAGCGGA; targeting domain within dual guide RNA, chemistry not given here, further chemistry not given here; listed as Homo sapiens)
The “HEK (NGS) % Editing Mean” value of the first is higher: 54% for the first, 46% for the second.

Going from “CR000826: dgRNA targeting domain to PDCD1 (guide ACUGCUCAGGCGGAGGUGAG; targeting domain within dual guide RNA, chemistry not given here, further chemistry not given here; listed as Homo sapiens)” to “CR000827: dgRNA targeting domain to PDCD1 (guide GCUCACCUCCGCCUGAGCAG; targeting domain within dual guide RNA, chemistry not given here, further chemistry not given here; listed as Homo sapiens)”, the “HEK (NGS) % Editing Mean” value falls from 70% to 39%.

Going from “CR000828: dgRNA targeting domain to PDCD1 (guide CUUCUCCACUGCUCAGGCGG; targeting domain within dual guide RNA, chemistry not given here, further chemistry not given here; listed as Homo sapiens)” to “CR000829: dgRNA targeting domain to PDCD1 (guide CAGUGGAGAAGGCGGCACUC; targeting domain within dual guide RNA, chemistry not given here, further chemistry not given here; listed as Homo sapiens)”, the “HEK (NGS) % Editing Mean” value falls from 69% to 68%.

Compared with “CR000830: dgRNA targeting domain to PDCD1 (guide UGGAGAAGGCGGCACUCUGG; targeting domain within dual guide RNA, chemistry not given here, further chemistry not given here; listed as Homo sapiens)”, “CR000831: dgRNA targeting domain to PDCD1 (guide GGAGAAGGCGGCACUCUGGU; targeting domain within dual guide RNA, chemistry not given here, further chemistry not given here; listed as Homo sapiens)” is higher in “HEK (NGS) % Editing Mean” value: 57% for the first, 66% for the second.

Going from “CR000832: dgRNA targeting domain to PDCD1 (guide GAGAAGGCGGCACUCUGGUG; targeting domain within dual guide RNA, chemistry not given here, further chemistry not given here; listed as Homo sapiens)” to “CR000833: dgRNA targeting domain to PDCD1 (guide AGGCGCCCUGGCCAGUCGUC; targeting domain within dual guide RNA, chemistry not given here, further chemistry not given here; listed as Homo sapiens)”, the “HEK (NGS) % Editing Mean” value falls from 49% to 34%.

Going from “CR000835: dgRNA targeting domain to PDCD1 (guide GCCCUGGCCAGUCGUCUGGG; targeting domain within dual guide RNA, chemistry not given here, further chemistry not given here; listed as Homo sapiens)” to “CR000836: dgRNA targeting domain to PDCD1 (guide CACCGCCCAGACGACUGGCC; targeting domain within dual guide RNA, chemistry not given here, further chemistry not given here; listed as Homo sapiens)”, the “HEK (NGS) % Editing Mean” value falls from 69% to 5%.

Going from “CR000840: dgRNA targeting domain to PDCD1 (guide GGGCGGUGCUACAACUGGGC; targeting domain within dual guide RNA, chemistry not given here, further chemistry not given here; listed as Homo sapiens)” to “CR000841: dgRNA targeting domain to PDCD1 (guide CGGUGCUACAACUGGGCUGG; targeting domain within dual guide RNA, chemistry not given here, further chemistry not given here; listed as Homo sapiens)”, the “HEK (NGS) % Editing Mean” value falls from 59% to 19%.

First: CR000842: dgRNA targeting domain to PDCD1 (guide CACCUACCUAAGAACCAUCC; targeting domain within dual guide RNA, chemistry not given here, further chemistry not given here; listed as Homo sapiens)
Second: CR000843: dgRNA targeting domain to PDCD1 (guide GAGAAGGUGGGGGGGUUCCA; targeting domain within dual guide RNA, chemistry not given here, further chemistry not given here; listed as Homo sapiens)
The “HEK (NGS) % Editing Mean” value of the first is higher: 40% for the first, 8% for the second.

First: CR000844: dgRNA targeting domain to PDCD1 (guide CGGUCACCACGAGCAGGGCU; targeting domain within dual guide RNA, chemistry not given here, further chemistry not given here; listed as Homo sapiens)
Second: CR000845: dgRNA targeting domain to PDCD1 (guide UCGGUCACCACGAGCAGGGC; targeting domain within dual guide RNA, chemistry not given here, further chemistry not given here; listed as Homo sapiens)
The “HEK (NGS) % Editing Mean” value of the first is higher: 25% for the first, 21% for the second.

Going from “CR000846: dgRNA targeting domain to PDCD1 (guide GCCCUGCUCGUGGUGACCGA; targeting domain within dual guide RNA, chemistry not given here, further chemistry not given here; listed as Homo sapiens)” to “CR000847: dgRNA targeting domain to PDCD1 (guide CCCUUCGGUCACCACGAGCA; targeting domain within dual guide RNA, chemistry not given here, further chemistry not given here; listed as Homo sapiens)”, the “HEK (NGS) % Editing Mean” value rises from 46% to 77%.

Going from “CR000848: dgRNA targeting domain to PDCD1 (guide CCCUGCUCGUGGUGACCGAA; targeting domain within dual guide RNA, chemistry not given here, further chemistry not given here; listed as Homo sapiens)” to “CR000849: dgRNA targeting domain to PDCD1 (guide CCCCUUCGGUCACCACGAGC; targeting domain within dual guide RNA, chemistry not given here, further chemistry not given here; listed as Homo sapiens)”, the “HEK (NGS) % Editing Mean” value falls from 65% to 29%.

Compared with “CR000850: gRNA targeting domain to PDCD1, CCUGCUCGUGGUGACCGAAG (SEQ ID NO: 5746) (targeting domain within guide RNA, chemistry not given here, further chemistry not given here; listed as Homo sapiens)”, “CR000851: dgRNA targeting domain to PDCD1 (guide GAAGGUGGCGUUGUCCCCUU; targeting domain within dual guide RNA, chemistry not given here, further chemistry not given here; listed as Homo sapiens)” is lower in “HEK (NGS) % Editing Mean” value: 55% for the first, 4% for the second.

Compared with “CR000852: dgRNA targeting domain to PDCD1 (guide GUUGGAGAAGCUGCAGGUGA; targeting domain within dual guide RNA, chemistry not given here, further chemistry not given here; listed as Homo sapiens)”, “CR000853: gRNA targeting domain to PDCD1, CACGAAGCUCUCCGAUGUGU (SEQ ID NO: 5749) (targeting domain within guide RNA, chemistry not given here, further chemistry not given here; listed as Homo sapiens)” is lower in “HEK (NGS) % Editing Mean” value: 72% for the first, 33% for the second.

First: CR000854: dgRNA targeting domain to PDCD1 (guide CGGAGAGCUUCGUGCUAAAC; targeting domain within dual guide RNA, chemistry not given here, further chemistry not given here; listed as Homo sapiens)
Second: CR000855: dgRNA targeting domain to PDCD1 (guide UCUGGUUGCUGGGGCUCAUG; targeting domain within dual guide RNA, chemistry not given here, further chemistry not given here; listed as Homo sapiens)
The “HEK (NGS) % Editing Mean” value of the first is lower: 24% for the first, 61% for the second.

With “CR000857: dgRNA targeting domain to PDCD1 (guide AGCUUGUCCGUCUGGUUGCU; targeting domain within dual guide RNA, chemistry not given here, further chemistry not given here; listed as Homo sapiens)” the “HEK (NGS) % Editing Mean” value was 1%.

Tested on: CIITA
Assay: NGS editing and frameshift edit of CIITA by dgRNA in HEK293 cells expressing Cas9
Type: cell-based, human
Settings: HEK293 cells stably expressing Cas9, dgRNA to CIITA, N = 3
Method: Editing of CIITA with dgRNAs targeted to the CIITA gene were assayed in HEK293 cells engineered to express Cas9, as described above in Example 1.

Going from “CR003025 (guide GUGACUGGCAGUCUCCUAGU; targeting domain within dual guide RNA, chemistry not given here, further chemistry not given here; listed as Homo sapiens)” to “CR003026 (guide AGUCGCUCACUGGUCCCACU; targeting domain within dual guide RNA, chemistry not given here, further chemistry not given here; listed as Homo sapiens)”, the “Avg. % Edit” value rises from 24.52% to 29.63%.

Same assay, conditions: frameshift edit, HEK293 cells stably expressing Cas9, dgRNA to CIITA

Compared with “CR003025 (guide GUGACUGGCAGUCUCCUAGU; targeting domain within dual guide RNA, chemistry not given here, further chemistry not given here; listed as Homo sapiens)”, “CR003026 (guide AGUCGCUCACUGGUCCCACU; targeting domain within dual guide RNA, chemistry not given here, further chemistry not given here; listed as Homo sapiens)” is higher in “Avg. % FS” value: 19.21% for the first, 20.05% for the second.
